Earlier results as cited in patent US8226980B2, “Orally disintegrating solid dosage forms comprising progestin and methods of making and using thereof” (Teva Women's Health, Inc., priority 2006, dated 2012).
Like-named read-outs stand apart in the source and are kept apart here.

Conditions: for Dose roughly equivalent to 0.050 mg of levonorgestrel: in a contraceptive regimen

## C#C[C@]1(O)CCC2C3CCC4=CC(=O)CCC4C3CCC21CC (stereo partly drawn) [Levonorgestrel, 18,19-Dinorpregn-4-en-20-yn-3-one-13-ethyl-17-hydroxy-, (17α)-(−)-]
Progestin Dose 0.10 mg
  Norethindrone Equivalent* Dose: 0.35 mg
Progestin Dose 0.15 mg
  Norethindrone Equivalent* Dose: 0.52 mg

## C#CC1(O)CC[C@H]2[C@@H]3CCC4=CC(=O)CC[C@@H]4[C@H]3CC[C@@]21CC (mixture of isomers) [dl-Norgestrel]
  Dose roughly equivalent to 0.050 mg of levonorgestrel: about 0.100 mg
Progestin Dose 0.30 mg
  Norethindrone Equivalent* Dose: 0.45 mg
Progestin Dose 0.50 mg
  Norethindrone Equivalent* Dose: 0.75 mg

## C#C[C@]1(O)CC[C@H]2[C@@H]3CCC4=CC(=O)CC[C@@H]4[C@H]3C(=C)C[C@@]21CC [3-ketodesogestrel]
  Dose roughly equivalent to 0.050 mg of levonorgestrel: about 0.050 mg

## C#C[C@]1(O)C=C[C@H]2[C@@H]3CCC4=CC(=O)CC[C@@H]4[C@H]3CC[C@@]21CC [gestodene]
  Dose roughly equivalent to 0.050 mg of levonorgestrel: about 0.035 mg

## C#C[C@]1(OC(C)=O)CC[C@H]2[C@@H]3CCC4=CC(=O)CC[C@@H]4[C@H]3CC[C@@]21C [Norethindrone acetate]
  Dose roughly equivalent to 0.050 mg of levonorgestrel: about 0.175 mg
Progestin Dose 0.40 mg
  Norethindrone Equivalent* Dose: 0.40 mg
Progestin Dose 0.50 mg
  Norethindrone Equivalent* Dose: 0.50 mg
Progestin Dose 0.60 mg
  Norethindrone Equivalent* Dose: 0.60 mg
Progestin Dose 1.00 mg
  Norethindrone Equivalent* Dose: 1.00 mg
Progestin Dose 1.50 mg
  Norethindrone Equivalent* Dose: 1.50 mg
Progestin Dose 2.50 mg
  Norethindrone Equivalent* Dose: 2.50 mg

## C#C[C@]1(O)CC[C@H]2[C@@H]3CCC4=CCCC[C@@H]4[C@H]3C(=C)C[C@@]21CC [desogestrel]
  Dose roughly equivalent to 0.050 mg of levonorgestrel: about 0.050 mg

## C#C[C@]1(O)CC[C@H]2[C@@H]3CCC4=CC(=O)CC[C@@H]4[C@H]3CC[C@@]21C [Norethindrone]
Progestin Dose 1.00 mg
  Norethindrone Equivalent* Dose: 1.00 mg
Progestin Dose 2.00 mg
  Norethindrone Equivalent* Dose: 2.00 mg
Progestin Dose 10.00 mg
  Norethindrone Equivalent* Dose: 10.00 mg

## C#C[C@]1(OC(C)=O)CC[C@H]2[C@@H]3CCC4=C[C@@H](OC(C)=O)CC[C@@H]4[C@H]3CC[C@@]21C [Ethynodiol diacetate]
Progestin Dose 1.00 mg
  Norethindrone Equivalent* Dose: 1.00 mg

## C#C[C@]1(O)CC[C@H]2[C@@H]3CCC4=C(CCC(=O)C4)[C@H]3CC[C@@]21C [Norethynodrel]
Progestin Dose 2.50 mg
  Norethindrone Equivalent* Dose: 2.50 mg
Progestin Dose 5.00 mg
  Norethindrone Equivalent* Dose: 5.00 mg
Progestin Dose 9.85 mg
  Norethindrone Equivalent* Dose: 9.85 mg
